# Test results reported in ChEMBL document CHEMBL5729264, “Bicyclic compounds” (2022).
# Assay: Dual-Glo Luciferase Assay: The Dual-Glo Luciferase Reagent was prepared by transferring the contents of one bottle of Dual-Glo Luciferase Buffer to one bottle of Dual-Glo Luciferase Substrate to create the Dual-Glo Luciferase Reagent. Mixing was performed by inversion until the substrate was thoroughly dissolved. After mixing, the reagent was aliquoted into 15 ml tubes. In the afternoon (24 hrs post compound treatment), the DMEM+medium in the 384 well plates were aspirated by Microplate Washer.Measuring firefly luciferase activity: 20 ul Dual-Glo Luciferase Reagent was added to the 384-well plates. The plates were protected from light to prevent interference with the assay. The plates were shaken for 1 min followed centrifuging plates at 1000 rpm for 30 seconds. After waiting at least 10 minutes, the firefly luminescence was measured by Envision.Measuring renilla luciferase activity: 20 ul Stop-Glo Reagent was added to the 384-well plates. The plates were shaken for 1 min and then centrifuged at 1000 rpm for 30 seconds. After waiting at least 10 minutes, the renilla luminescence was measured by Envision.Compound IC50 and maximum inhibition on the firefly luciferase and renilla luciferase activities were reported separately.
row,IC50,SMILES
1,< 100 nM,CC(C)NC(=O)c1ccc2c(Oc3ccc(C(F)(F)F)cc3Cl)cccc2c1
2,< 100 nM,C[C@@H](NC(=O)c1ccc2c(Oc3ccc(C(F)(F)F)cc3)cccc2c1)C(N)=O
3,< 100 nM,C[C@@H](NC(=O)c1ccc2c(Oc3ccc(C(F)(F)F)cc3)cccc2c1)C1COC1
4,< 100 nM,C[C@H](NC(=O)c1ccc2c(Oc3ccc(C(F)(F)F)cc3)cccc2c1)C1CC1
5,< 100 nM,C[C@H](NC(=O)c1ccc2c(Oc3ccc(C(F)(F)F)cc3)cccc2c1)C1CCC1
6,< 100 nM,C[C@@H](NC(=O)c1ccc2c(Oc3ccc(C(F)(F)F)cc3)cccc2c1)c1cccc(N)n1
7,in the range around 550 nM,C[C@@H](NC(=O)c1ccc2c(Oc3ccc(C(F)(F)F)cc3)cccc2c1)C1CN(C)C1
8,in the range around 550 nM,C[C@H](NC(=O)c1ccc2c(Oc3ccc(C(F)(F)F)cc3)cccc2c1)c1ncc[nH]1
9,< 100 nM,C[C@@H](NC(=O)c1ccc2c(Oc3ccc(C(F)(F)F)cc3)cccc2c1)C1CNC1
10,< 100 nM,CC(C)NC(=O)c1ccc2c(Oc3ccc(C(F)(F)F)cc3)cncc2c1
11,in the range around 2000 nM,C[C@H](NC(=O)c1ccc2c(Oc3ccc(C(F)(F)F)cc3)cccc2c1)C1CN(C)C1
12,in the range around 550 nM,N#CNC(=O)c1ccc2c(Oc3ccc(C(F)(F)F)cc3)cccc2c1
13,< 100 nM,C[C@H](CCO)NC(=O)c1ccc2c(Oc3ccc(C(F)(F)F)cc3)cccc2c1
14,< 100 nM,CNS(=O)(=O)c1ccc2c(Oc3ccc(Cl)c(Cl)c3)cccc2c1
15,< 100 nM,C[C@@H](CN)NC(=O)c1ccc2c(Oc3ccc(C(F)(F)F)cc3)cccc2c1
16,in the range around 550 nM,C[C@@H](NC(=O)c1ccc2c(Oc3ccc(C(F)(F)F)cc3)cccc2c1)C1(F)CNC1
17,< 100 nM,CC(C)NC(=O)c1ccc2c(Oc3cccc(Cl)c3)cccc2c1
18,in the range around 550 nM,CCN1CC([C@@H](C)NC(=O)c2ccc3c(Oc4ccc(C(F)(F)F)cc4)cccc3c2)C1

row,IC50,SMILES
1,< 100 nM,CC(C)NC(=O)c1ccc2c(Oc3ccc(C(F)(F)F)cc3)cccc2c1
2,< 100 nM,CS(=O)(=O)NC(=O)c1ccc2c(Oc3ccc(Cl)c(Cl)c3)cccc2c1
3,< 100 nM,C[C@@H](NC(=O)c1ccc2c(Oc3ccc(C(F)(F)F)cc3)cccc2c1)C1CC1
4,< 100 nM,CCNCC[C@@H](C)NC(=O)c1ccc2c(Oc3ccc(C(F)(F)F)cc3)cccc2c1
5,< 100 nM,C[C@H](CCN)NC(=O)c1ccc2c(Oc3ccc(C(F)(F)F)cc3)cccc2c1
6,in the range around 550 nM,C[C@H](NC(=O)c1ccc2c(Oc3ccc(C(F)(F)F)cc3)cccc2c1)c1nnnn1C
7,< 100 nM,CC(C)NC(=O)c1cnc2c(Oc3ccc(C(F)(F)F)cc3)cccc2c1
8,< 100 nM,C[C@H](NC(=O)c1ccc2c(Oc3ccc(C(F)(F)F)cc3)cccc2c1)C(N)=O
9,in the range around 2000 nM,CC(C)N1CC([C@@H](C)NC(=O)c2ccc3c(Oc4ccc(C(F)(F)F)cc4)cccc3c2)C1
10,in the range around 550 nM,C[C@H](NC(=O)c1ccc2c(Oc3ccc(C(F)(F)F)cc3)cccc2c1)c1nccn1C
11,< 100 nM,C[C@H](NC(=O)c1ccc2c(Oc3ccc(C(F)(F)F)cc3)cccc2c1)c1nnn(C)n1
12,in the range around 2000 nM,C[C@H](NC(=O)c1ccc2c(Oc3ccc(C(F)(F)F)cc3)cccc2c1)c1nn[nH]n1
13,< 100 nM,C[C@@H](NC(=O)c1ccc2c(Oc3ccc(C(F)(F)F)cc3)cccc2c1)C1CCC1
14,< 100 nM,CC(C)NC(=O)c1ccc2c(Oc3ccc(C(F)(F)F)cc3F)cccc2c1
15,< 100 nM,C[C@H](CO)NC(=O)c1ccc2c(Oc3ccc(C(F)(F)F)cc3)cccc2c1
16,< 100 nM,C[C@@H](NC(=O)c1ccc2c(Oc3ccc(C(F)(F)F)cc3)cccc2c1)c1ncc[nH]1
17,in the range around 550 nM,C[C@H](NC(=O)c1ccc2c(Oc3ccc(C(F)(F)F)cc3)cccc2c1)c1cccc(N)n1

# Second part, the compound before the results:
row,SMILES,IC50
1,NS(=O)(=O)c1ccc2c(Oc3ccc(C(F)(F)F)cc3)cccc2c1,< 100 nM
2,CC(C)NC(=O)c1cc2cccc(Oc3ccc(C(F)(F)F)cc3)c2s1,< 100 nM
3,CC(C)NC(=O)c1cnc2c(Oc3ccc(C(F)(F)F)cc3)cc(F)c(F)c2c1,< 100 nM
4,COc1cc(Oc2ccc(C(F)(F)F)cc2)c2ncc(C(=O)NC(C)C)cc2c1,< 100 nM
5,C[C@H](NC(=O)c1ccc2c(Oc3ccc(C(F)(F)F)cc3)cccc2c1)C1CN(CCO)C1,in the range around 550 nM
6,COc1cc(Oc2ccc(C(F)(F)F)cc2)c2ncc(C(=O)N[C@H](C)c3ccccn3)cc2c1,in the range around 550 nM
7,C[C@H](NC(=O)c1ccc2c(Oc3ccc(C(F)(F)F)cc3)cccc2c1)c1ccccn1,< 100 nM
8,C[C@@H](NC(=O)c1ccc2c(Oc3ccc(C(F)(F)F)cc3)cccc2c1)c1c[nH]cn1,< 100 nM
9,C[C@H](CCNCCO)NC(=O)c1ccc2c(Oc3ccc(C(F)(F)F)cc3)cccc2c1,< 100 nM
10,C[C@H](NC(=O)c1ccc2c(Oc3ccc(C(F)(F)F)cc3)cccc2c1)c1cc(N(C)C)ccn1,in the range around 550 nM
11,O=C(N[C@H](CO)c1ccccn1)c1ccc2c(Oc3ccc(C(F)(F)F)cc3)cccc2c1,< 100 nM
12,C[C@H](NC(=O)c1ccc2c(Oc3ccc(C(F)(F)F)cc3)cccc2c1)c1cc(N)ccn1,in the range around 550 nM
13,O=C(NC(CO)c1ccccn1)c1ccc2c(Oc3ccc(C(F)(F)F)cc3)cccc2c1 (stereo not given),< 100 nM
14,CNCCNC(=O)c1ccc2c(Oc3ccc(C(F)(F)F)cc3)cccc2c1,in the range around 550 nM
15,CS(=O)(=O)NC(=O)c1ccc2c(Oc3ccc(C(F)(F)F)cc3)cccc2c1,< 100 nM
16,O=C(N[C@H](CO)C1CNC1)c1ccc2c(Oc3ccc(C(F)(F)F)cc3)cccc2c1,in the range around 550 nM
17,O=C(NC1(c2ccccc2)COC1)c1ccc2c(Oc3ccc(C(F)(F)F)cc3)cccc2c1,< 100 nM
18,CNCCCNC(=O)c1ccc2c(Oc3ccc(C(F)(F)F)cc3)cccc2c1,< 100 nM
19,O=C(NC(CCO)CCO)c1ccc2c(Oc3ccc(C(F)(F)F)cc3)cccc2c1,< 100 nM
20,C[C@@H](NC(=O)c1ccc2c(Oc3ccc(C(F)(F)F)cc3)cccc2c1)c1cccc(N(C)C)n1,< 100 nM
21,C[C@@H](NC(=O)c1ccc2c(Oc3ccc(C(F)(F)F)cc3)cccc2c1)C1CN(CC(F)F)C1,< 100 nM
22,COC[C@H](C)NC(=O)c1cnc2c(Oc3ccc(C(F)(F)F)cc3)cc(OC)cc2c1,< 100 nM
23,C#CCCNC(=O)c1ccc2c(Oc3ccc(C(F)(F)F)cc3)cccc2c1,< 100 nM
24,C[C@@H](NC(=O)c1cnc2c(Oc3ccc(C(F)(F)F)cc3)cccc2c1)c1ccccn1,in the range around 550 nM
25,COC[C@@H](C)NC(=O)c1cnc2c(Oc3ccc(C(F)(F)F)cc3)cc(OC)cc2c1,< 100 nM
26,O=C(NC1(c2ccccn2)CC1)c1ccc2c(Oc3ccc(C(F)(F)F)cc3)cccc2c1,< 100 nM
27,C[C@@H](NC(=O)c1ccc2c(Oc3ccc(C(F)(F)F)cc3)cccc2c1)C1CCN(CC(F)F)CC1,in the range around 550 nM
28,C[C@@H](NC(=O)c1cnc2c(Oc3ccc(C(F)(F)F)cc3)cccc2c1)c1cccc2nc[nH]c12,in the range around 550 nM
29,C[C@H](NC(=O)c1ccc2c(Oc3ccc(C(F)(F)F)cc3)cccc2c1)C1CN(CC(F)F)C1,in the range around 2000 nM
30,C[C@@H](NC(=O)c1ccc2c(Oc3ccc(C(F)(F)F)cc3)cccc2c1)c1cccc2ccc(=O)[nH]c12,< 100 nM
